From US8426371B2, “Biologically active extract from Dendrobium plant, use thereof and process for preparing the same” (National Yang-Ming University, priority 2007, dated 2013)

System: RPE cells
Experiment: Phagocytosis of RPE: FITC-ROS uptake, fluorescence intensity (total; ingestion with fluoro Quench dye)
Format: cell-based
Settings: for effect on the total phagocytosis of RPE: 0.1, 1, 10, 100 μg/ml, 24 hrs treatment in 2% FCS DMEM, then FITC-ROS 4 hrs, compared with 2% FCS; for effect on the phagocytosis of RPE (total and ingestion, FIGS. 8-15): summary based on FIGS. 8-15
Procedure: 1×10^4 RPE cells are seeded in 96-well microplate per well, containing 5% FCS in DMEM after 48 hrs, and the medium is changed with 2% FCS in DMEM. Then different concentrations of DCMPbL6,7D2H2H3 are added respectively. After 24 hrs, 50 μl of 2×10^7 FITC-ROS/ml is added into each well. Four hours later, the unbounded FITC-ROS is washed out with PBS+2% sucrose. The emission wavelength is 485 nm and the detecting wavelength is 530 nm. The fluorescence intensity is detected by a 1420 Multilable counter (PE) measurement system. The detected fluorescence intensity represents the total phagocytosis. If the fluoro Quench dye is added, the detected fluorescence intensity represents the ingestion phagocytosis. *P<0.05, **P<0.02, ***P<0.01 and ****P<0.001 are obtained by comparing with phagocytosis of RPE treated with 2% FCS.
1×10^4 RPE cells are seeded in 96-well microplate per well, containing 5% FCS in DMEM after 48 hrs, and the medium is changed with 2% FCS in DMEM. Then different concentrations of DCMPbL6,7D2H2H3H2 are added respectively. After 24 hrs, 50 μl of 2×10^7 FITC-ROS/ml is added into each well. Four hours later, the unbounded FITC-ROS is washed out with PBS+2% sucrose. The emission wavelength is 485 nm and the detecting wavelength is 530 nm. The fluorescence intensity is detected by a 1420 Multilable counter (PE) measurement system. The detected fluorescence intensity represents the total phagocytosis. If the fluoro Quench dye is added, the detected fluorescence intensity represents the ingestion phagocytosis. *P<0.05, **P<0.02, ***P<0.01 and ****P<0.001 are obtained by comparing with phagocytosis of RPE treated with 2% FCS.
1×10^4 RPE cells are seeded in 96-well microplate per well, containing 5% FCS in DMEM after 48 hrs, and the medium is changed with 2% FCS in DMEM. Then different concentrations of DCMPbL6,7D2H2H3H3 are added respectively. After 24 hrs, 50 μl of 2×10^7 FITC-ROS/ml is added into each well. Four hours later, the unbounded FITC-ROS is washed out with PBS+2% sucrose. The emission wavelength is 485 nm and the detecting wavelength is 530 nm. The fluorescence intensity is detected by a 1420 Multilable counter (PE) measurement system. The detected fluorescence intensity represents the total phagocytosis. If the fluoro Quench dye is added, the detected fluorescence intensity represents the ingestion phagocytosis. *P<0.05, **P<0.02, ***P<0.01 and ****P<0.001 are obtained by comparing with phagocytosis of RPE treated with 2% FCS.
1×10^4 RPE cells are seeded in 96-well microplate per well, containing 5% FCS in DMEM after 48 hrs, and the medium is changed with 2% FCS in DMEM. Then different concentrations of DCMPbL6,7D2H2H3H4 are added respectively. After 24 hrs, 50 μl of 2×10^7 FITC-ROS/ml is added into each well.

SMILES | effect on the total phagocytosis of RPE | effect on the phagocytosis of RPE (total and ingestion, FIGS. 8-15)
O=c1cc(-c2ccc(O)cc2)oc2c([C@@H]3OC[C@H](O)[C@H](O)[C@H]3O)c(O)c([C@@H]3OC[C@@H](O)[C@H](O)[C@H]3O)c(O)c12 [DCMPbL6,7D2H2H3H2, apigenin 6-C-β-D-Xylopyranosyl-8-C-α-L-arabinopyranoside] | can accelerate the phagocytosis of RPE | could accelerate the phagocytosis of RPE
O=c1cc(-c2ccc(O)cc2)oc2c([C@@H]3OC[C@H](O)[C@H](O)[C@H]3O)c(O)c([C@@H]3OC[C@H](O)[C@H](O)[C@H]3O)c(O)c12 [DCMPbL6,7D2H2H3H3, apigenin 6,8-Di-C-α-L-arabinopyranoside] | can accelerate the phagocytosis of RPE | could accelerate the phagocytosis of RPE
O=c1cc(-c2ccc(O)cc2)oc2c([C@@H]3OC[C@@H](O)[C@@H](O)[C@@H]3O)c(O)c([C@@H]3OC[C@H](O)[C@H](O)[C@H]3O)c(O)c12 [DCMPbL6,7D2H2H3H4, apigenin 6-C-α-L-Arabinopyranosyl-8-C-β-D-arabinopyranoside] | can accelerate the phagocytosis of RPE | could accelerate the phagocytosis of RPE
